Assay results from patent US20100093872A1, “STABLE AQUEOUS FORMULATIONS OF WATER INSOLUBLE OR POORLY SOLUBLE DRUGS” (Erimos Pharmaceuticals LLC, priority 2008, published 2010).
Converted amounts (≈) assume the structure as drawn. Where two headings read alike, the source gives them in different places. Each block holds one compound with its values, some of them ahead of it.

What was measured:
[1] = cited from earlier work
[2] = Accelerated stability of 60 L lot terameprocol/HPβCD samples; type: physicochemical; details: 40° C/75% RH for 1 month; 60 L lots; no pH adjustment with/without homogenization, or pH 7 without homogenizer, with/without autoclaving
Procedure: The 5 L terameprocol formulation process was scaled up to 60 L lots. The 60 L lots were conducted to (a) evaluate the criticality of using an homogenizer to promote complexation of the terameprocol and HPβCD (b) evaluate the stability of the terameprocol/HPβCD complex upon pH adjustment after compounding using NaOH and/or HCl (c) investigate the stability after autoclaving up to 30 minutes at 121° C. of the non pH adjusted, pH adjusted, homogenized, and non-homogenized terameprocol samples (d) optimize the 5 L formulation process to 60 L in order to support a clinical scale-up to 373 L.
It was determined that with proper tank design using an aggressive mixer introduced enough energy into the system where the homogenizer may not be critical for complexation. Samples of terameprocol that had 1) no pH adjustment with and without homogenization and 2) pH adjusted to 7 with no homogenizer and with and without autoclaving were stable at the accelerated condition of 40° C/75% RH for 1 month.

[3] = Determination of optimum temperature requirement (microscopic images of in-process samples); type: physicochemical; details: for crystals in in-process sample (microscopic image): HPβCD solution, homogenized
Procedure: A solution of HPβCD was prepared in a 5 L jacketed vessel and heated to aid in dissolution. Terameprocol was added slowly to the HPβCD solution. The in-line homogenizer was utilized and the temperature was maintained at 40° C. for 2 hours. […] The temperature was increased to 60° C. with homogenization and held for one hour. […] The temperature was increased to 80° C. under homogenization for 2 hours. It was noted that due to heating in a closed vessel, the system was slightly pressurized due to the increase in operating temperature. […] The experiment was repeated but the system was taken to temperature above the melting point (>104° C.) with homogenization in the same closed vessel. The vessel was then cooled and samples taken. […] It was concluded the optimum temperature requirement was that above the drug's melting point.

physchem [4] = type: physicochemical; details: water
Procedure: Terameprocol is an extremely difficult drug to formulate because it is effectively insoluble in all of the commonly used aqueous media used for intravenous delivery of pharmaceuticals. Terameprocol's solubility in an aqueous solvent, at all pH's in water, 0.9% saline and 5% dextrose is <0.01 mg/mL, a level below the limit of quantitation of the RP-HPLC assay used for evaluation. In order to develop a formulation suitable for clinical use, it is preferred that the solubility of the drug be equal to or exceed 5 mg/mL. At concentrations below this limit, large volumes of solvent are required to deliver the drug. The extremely low solubility of terameprocol presents major formulation challenges using conventional formulation techniques such as the use of organic solvents, surfactants or extremes of pH. These conventional formulation approaches would require the administration of large concentrations of co-solvents and may render the solution viscous and/or difficult to handle during reconstitution in the bedside or pharmacy. […] The use of conventional approaches have met with limited success when formulating terameprocol for intravenous parenteral administration.

[5] = Achievable terameprocol concentration in HPβCD formulations without co-solvent (bench-scale development); type: physicochemical
Procedure: The inventors of the present invention have made the surprising discovery that terameprocol can be formulated in cyclodextrins without the need for elaborate chemical solvent matrices and that lead to increases in the solubility of water insoluble drugs through the formation of a stable inclusion complex. […] Details of this will be discussed later.
Bench-top (10 mL) to 5 L scale development studies were performed to remove PEG 300 from terameprocol/HPβCD formulations. Conclusions from the bench scale experiments were (a) 7 mg/mL is the maximum achievable terameprocol concentration in an IV formulation containing 30-40% HPβCD (b) incorporating the drug at high temperatures (80° C. or greater) is an important step in forming the inclusion complex (c) high mechanical energy must be provided when cooling the complex to approximately ambient condition once formed. There were differences in equipment used at the 10 mL vs. 5 L scale. The 10 mL scale utilized glass beakers with a sonicator for incorporation, while the 5 L experiments were conducted with a 10 L stainless steel jacketed vessel equipped with a recirculating heating bath, overhead air powered blade mixer and an in-line homogenizer.

physchem [6] = type: physicochemical; details: organic solvent or mixture, thermodynamic from solid
Procedure: The solubility of terameprocol was tested in various solvents and dispersed systems. An excess of the solid API (20-50 mg) was shaken with 1 mL of a given solvent overnight (˜16 hr) at room temperature on a gyratory shaker at maximum speed. The samples were filtered through 0.45 μm PVDF filter. The filtrates were diluted to the working linear range (0.06-0.1 mg/mL) of the UV-Vis method appropriately in acetonitrile and analyzed for terameprocol concentration using a UV-Vis spectrophotometer. The equation of the standard curve was y=16.70x+0.016 with a R^2=0.999 monitored at 281 nm.
Solubility in PEG 300 increased with increasing temperature with the value being greater than 600 mg/mL at 95° C.

[7] = Stability of terameprocol/HPβCD 5 L formulation with NaCl and after autoclaving (precipitation); type: physicochemical
Procedure: The 5 L experiments were conducted to (a) explore the acceptable temperature range indicated in ‘b’ above required for forming terameprocol cyclodextrin complexes, (b) evaluate the stability of terameprocol/HPβCD upon autoclaving: 15 minutes vs. 30 minutes at 121° C., (c) evaluate the compatibility of terameprocol/HPβCD with 0.5% (w/v) sodium chloride (NaCl), and (d) develop a process which could be scaled to the next engineering size of 60 L. The acceptable temperature required for complexation of terameprocol and cyclodextrin (HPβCD) was determined to be above the melting point of terameprocol (>104° C.). The resulting terameprocol/HPβCD formulation was stable for 4 weeks at room temperature (RT), 4 weeks under refrigerated conditions, and 2 weeks under accelerated conditions (40° C.) for all sample types evaluated: non-autoclaved, autoclaved up to 30 minutes, and upon spiking with NaCl as shown in Table 2. The compatibility of terameprocol/HPβCD with NaCl supports flushing of the IV lines with 0.9% Saline to keep lines patent if required.

[8] = Chemical stability of terameprocol under stress (base, acid, heat, light, oxidizer, water); type: physicochemical; details: subjected to base, oxidizer, and water
Text: Terameprocol is a small molecule with a molecular weight of 358.5 g/mol; it is hydrophobic, and non-ionic.

[9] = 0.5% w/v NaCl, autoclaved 15 min at 121° C.
[10] = 0.5% w/v NaCl, autoclaved 30 min at 121° C.
[11] = Unspiked, autoclaved 15 min at 121° C.
[12] = Unspiked, autoclaved 30 min at 121° C.

SMILES: CC(O)COC[C@H]1O[C@@H]2O[C@H]3[C@H](O)[C@@H](O)[C@@H](O[C@H]4[C@H](O)[C@@H](O)[C@@H](O[C@H]5[C@H](O)[C@@H](O)[C@@H](O[C@H]6[C@H](O)[C@@H](O)[C@@H](O[C@H]7[C@H](O)[C@@H](O)[C@@H](O[C@H]8[C@H](O)[C@@H](O)[C@@H](O[C@H]1[C@H](O)[C@H]2O)O[C@@H]8COCC(C)O)O[C@@H]7COCC(C)O)O[C@@H]6COCC(C)O)O[C@@H]5COCC(C)O)O[C@@H]4COCC(C)O)O[C@@H]3COCC(C)O (stereo partly drawn) [HPβCD, hydroxypropyl beta-cyclodextrin]
stability during sterilization ([1]; 121° C. for 15 minutes): stable
hydrolysis ([1]; extreme acidic conditions of pH 2 at 60° C.): slight hydrolysis
hydrolysis ([1]; pH 4, at 40° C. after 24 hrs): No significant hydrolysis

formulation stability [2]: stable
crystals in in-process sample (microscopic image) ([3]; 40° C. for 2 hours (FIG. 6-A)): numerous terameprocol crystals present
crystals in in-process sample (microscopic image) ([3]; 60° C. for one hour (FIG. 6-B)): presence of crystals was still evident
crystal formation ([3]; processed above the melting point (>104° C.) with homogenization, immediately or after 4 weeks): no crystal formation
solubility (physchem [4]): < 0.01 mg/mL
maximum achievable terameprocol concentration ([5]; IV formulation containing 30-40% HPβCD, no PEG 300, bench scale): 7 mg/mL
concentration obtained on mixing with cyclodextrin in water without solvent ([5]; all temperatures below the melting point, or precipitation): ≤ 7000 µg/mL
solubility at 16 h (physchem [6]; 25 °C, solubility in pharmaceutically relevant solvents): < 10 mg/mL
solubility (physchem [6]; 40 °C): 10.1 mg/mL (≈ 28.2 mM)
solubility (physchem [6]; 80 °C): > 400 mg/mL
solubility (physchem [6]; 95 °C): > 600 mg/mL
Precipitation 2-8° C. (4-weeks) [7, 9]: No
Precipitation 40° C. (2-weeks) [7, 9]: No
Precipitation RT (4-weeks) [7, 9]: No
Terameprocol [7, 9]: 6.03 mg/mL
Precipitation 2-8° C. (4-weeks) [7, 10]: No
Precipitation 40° C. (2-weeks) [7, 10]: No
Precipitation RT (4-weeks) [7, 10]: No
Terameprocol [7, 10]: 5.77 mg/mL
Precipitation 2-8° C. (4-weeks) ([7]; 0.5% w/v NaCl, not autoclaved): No
Precipitation 40° C. (2-weeks) ([7]; 0.5% w/v NaCl, not autoclaved): No
Precipitation RT (4-weeks) ([7]; 0.5% w/v NaCl, not autoclaved): No
Terameprocol ([7]; 0.5% w/v NaCl, not autoclaved): 5.89 mg/mL
Precipitation 2-8° C. (4-weeks) [7, 11]: No
Precipitation 40° C. (2-weeks) [7, 11]: No
Precipitation RT (4-weeks) [7, 11]: No
Terameprocol [7, 11]: 5.76 mg/mL
Precipitation 2-8° C. (4-weeks) [7, 12]: No
Precipitation 40° C. (2-weeks) [7, 12]: No
Precipitation RT (4-weeks) [7, 12]: No
Terameprocol [7, 12]: 5.97 mg/mL
Precipitation 2-8° C. (4-weeks) ([7]; Unspiked, not autoclaved): No
Precipitation 40° C. (2-weeks) ([7]; Unspiked, not autoclaved): No
Precipitation RT (4-weeks) ([7]; Unspiked, not autoclaved): No
Terameprocol ([7]; Unspiked, not autoclaved): 5.80 mg/mL
stability / degradation [8]: does not degrade
SMILES: COc1ccc(C[C@@H](C)[C@@H](C)Cc2ccc(OC)c(OC)c2)cc1OC [terameprocol, tetra-o-methyl nordihydroguaiaretic acid]
crystals in in-process sample (microscopic image) ([3]; 80° C. for 2 hours (FIG. 6-C)): significant reduction in crystal formation
